From patent US4513007A, “Method for treating heart disease” (priority 1983, dated 1985)

Key:
[1] = system: cardiac lymphatics; assay: post-mortem cardiac lymphangiography in normal dog hearts (first study); format: in vivo, mongrel dogs; details: normal myocardium
Description: I. In a first study the effect of calcium dobesilate was compared to Hyaluronidase on the visualization of cardiac lymphatics in normal dog hearts (not infarcted). 18 healthy mongrel dogs of either gender were divided into 3 groups each of 6 animals. […] The dogs in the second group received an intravenous injection of Hyaluronidase (500 I.U./kg) and those of the third group received an i.v. injection of calcium dobesilate (50-100 mg/kg). Post-mortem cardiac lymphangiography was performed after killing the animals and extracting the hearts 6 hours after the administration of either product. The results of the 2 groups were compared to that of the controls. The technique of cardiac lymphangiography used was that described by Szlavy L., Adams D., Hollenberg N. K. and Abrams H., published in the American Heart Journal, Vol. 100, Nr. 3, pp 323-331, Sept. 1980 (8). The technique consisted in injecting a contrast agent (30 g barium sulphate+2-5 ml of Iodamid 420) into the superficial lymphatic vessels of the heart using a Becton-Dickinson lymphangiography set. The contrast agent was injected under gentle manual pressure until the lymphatic vessels in the left ventricle were filled (multiple injections starting from the apex to the base of the heart). The heart was then X-rayed with 5-fold magnification using a 0,1 mm focal spot X-raytube and with exposure factors of 50 KV, 0,01 second and 30 mA. With this technique it was possible to visualize the 40-80 microns lymphatic vessels. A grid was applied on the lymphangiograms which consisted of lines drawn at right angles, 1 cm apart. Each 5×5 cm^2 served as a single unit as it corresponded to 1 cm^2 of the left ventricular myocardium (5-fold magnification was used for filming). A point was counted whenever a crossing coincided with a visualized lymph vessel in the lymphangiogram. In this way a quantitative index was obtained based on the number of lymph vessels/cm^2 or to the percent of the left ventricular surface area.

[2] = system: dogs with experimental myocardial infarction; assay: electrocardiographic tracings in dogs after coronary artery ligation (second study); format: in vivo, mongrel dogs; details: group III treated dogs, 360 min, 100 mg/kg i.v.
Description: In 7 dogs the coronary artery was occluded and lymphangiography was performed post-mortem 30 minutes after the occlusion (group II). In 6 other dogs the coronary artery was occluded and lymphangiography was performed 360 minutes after coronary artery occlusion (group III). An additional 12 dogs were treated with CLS 2210 (calcium dobesilate) in a single dose of 100 mg/kg by intravenous infusion immediately after coronary artery occlusion. In 6 of these dogs, post-mortem lymphangiography was performed 30 minutes following coronary artery occlusion (group II), and in the other 6 it was performed 360 minutes after occlusion (group III).

[3] = system: rabbit ear; details: Roskam's method; U.S. Pat. No. 3,509,207; cited from earlier work
[4] = system: microvessels; details: cited from earlier work
[5] = system: cardiac lymphatics; assay: cardiac lymphangiography in normal dogs and dogs with LAD coronary artery ligation (second study); format: in vivo, mongrel dogs; details: 100 mg/kg i.v.
Description: II. The second study was performed to evaluate the influence of calcium dobesilate on the visualization of the lymphatic vessels in the infarcted and non-infarcted zones after ligation of the left anterior descending (LAD) coronary artery in 37 mongrel dogs. In 6 dogs the coronary artery was not occluded (group I). […] Therefore a larger control series was not required. In 6 normal dogs CLS 2210 (calcium dobesilate) was administered in a single dose of 100 mg/kg by intravenous infusion in 100 ml of physiological saline or glucose. Six hours after administration of CLS 2210 (calcium dobesilate) the dogs were killed and cardiac lymphangiography was performed post-mortem (group I) as described above (8). In 7 dogs the coronary artery was occluded and lymphangiography was performed post-mortem 30 minutes after the occlusion (group II). In 6 other dogs the coronary artery was occluded and lymphangiography was performed 360 minutes after coronary artery occlusion (group III). An additional 12 dogs were treated with CLS 2210 (calcium dobesilate) in a single dose of 100 mg/kg by intravenous infusion immediately after coronary artery occlusion. In 6 of these dogs, post-mortem lymphangiography was performed 30 minutes following coronary artery occlusion (group II), and in the other 6 it was performed 360 minutes after occlusion (group III). The infarcted zone of myocardium was identified in vivo by direct inspection after coronary artery occlusion according to the usual indices, including color change and disordered contraction. […] Both the infarcted (LAD) and non-infarcted zones (the non-[…] zone was the region of the left circumflex coronary artery or LCC) were evaluated, the non-infarcted zone serving for comparison. Mean values were presented with the standard error of the mean as the index of dispersion. Statistical analysis was done, where appropriate, with the student t-test or by non-parametric methods in the form of the Wilcoxon ranks sum test or Fisher's s exact test. The null hyothesis was rejected when p was less than 0,05.

[6] = system: patients with fresh myocardial infarction; format: in vivo, human (patients)
Description: V. A preliminary clinical study was conducted on 100 patients with fresh myocardial infarction who had to fulfill the following criteria for admission: typical history of chest pain, with onset of less than six hours duration and having anterior or anteroseptal transmural myocardial infarction evidenced by 12 leads EKG criteria. 50 patients received the usual conventional drugs advocated in the hospital where the study was undertaken (potent analgesic, nitroglycerin, diuretics, lidocain, digitalis) and served as a comparison or control group. The other 50 patients received the conventional drugs and in addition calcium dobesilate which was given as follows: 100 mg/kg of calcium dobesilate by i.v. perfusion in 300 ml glucose, on admission 50-100 mg/kg of calcium dobesilate by i.v. perfusion in 300 ml glucose every hour during the subsequent 3 hours 25 mg/kg of calcium dobesilate by i.v. perfusion in 300 ml glucose every 6 hours until the 3rd-4th day after admission The treatment was then continued, by giving 500-1,000 mg of calcium dobesilate orally thrice daily.

[7] = compared to controls (FIGS. 1-3)

Question: With `O=S(=O)(O)c1cc(O)ccc1O` [calcium dobesilate, calcium 2,5-dihydroxybenzenesulfonate] as the molecule, how does the “number of visualized lymphatics/cm^2 and equivalent left ventricular surface, comparison with Hyaluronidase and control groups” value [1] read?
Answer: Its value is “much higher”.

Question: And the “No of lymphatics per cm^2” value ([1]; 6 h after i.v., Hyaluronidase 500 I.U./kg, calcium dobesilate 50-100 mg/kg, controls 1.64 ± 0.11, P <0.001 in relation to control)?
Answer: Its value is 5.22 ± 0.34 per cm^2.

Question: And the “Equivalence to ventricular surface” value ([1]; 6 h after i.v., Hyaluronidase 500 I.U./kg, calcium dobesilate 50-100 mg/kg, controls 6.6%, P <0.001)?
Answer: The value was 20.9%.

Question: And the ST-segment elevation [2]?
Answer: Its ST-segment elevation is “a fall in the ST-segment elevation”.

Question: What about the “mean bleeding time of the rabbit ear” value [3] of the same molecule?
Answer: The value was “reduce”.

Question: What about the anti-oedema effect [4] of the same molecule?
Answer: Its anti-oedema effect is “anti-oedema”.

Question: What about the “capillary fragility and permeability” value [4] of the same molecule?
Answer: The value was “reducing”.

Question: What about the viscosity lowering effect [4] of the same molecule?
Answer: Its viscosity lowering effect is “viscosity lowering effect”.

Question: What about the “mean points count/cm^2, LCC zone (non infarcted)” value ([5]; group I, normal dogs without MI, 360 min, untreated 1,84 ± 0,18, p <0,001) of the same molecule?
Answer: The value was 5,22 ± 0,34 points/cm^2.

Question: And the “ventricular surface occupied by lymphatics” value (from here on “ventricular surface occupied”) ([5]; group I, normal dogs without MI, 360 min, untreated 7,2%, listed as CLS 2210, 100 mg/kg)?
Answer: Its value is 20.9%.

Question: What about the “ventricular surface occupied” value ([5]; group I, normal dogs without MI, 360 min, untreated 7,2%, listed as CLS (ca. dobesilate), 100 mg/kg) of the same molecule?
Answer: The value was 20,9%.

Question: What about the “mean points count/cm^2, LAD zone” value ([5]; group I, normal dogs without myocardial infarction, 360 min, untreated 1,81 ± 0,18, p <0,001) of the same molecule?
Answer: Its value is 5,20 ± 0,34 points/cm^2.

Question: And the “point counts, normal myocardium” value ([5]; group I, normal dogs, 6 h, p<0,001 vs untreated normal myocardium)?
Answer: The value was 5,22±0,34 points/cm^2.

Question: What about the “ventricular surface occupied” value ([5]; group II, dogs with MI, 30 min, untreated 3,1%) of the same molecule?
Answer: The value was 9,8%.

Question: What about the “mean points count/cm^2, LAD zone (infarcted)” value ([5]; group II, dogs with MI, 30 min after occlusion, untreated 0,78 ± 0,07, p <0,01, listed as CLS 2210, 100 mg/kg) of the same molecule?
Answer: The value was 2,43±0,06 points/cm^2.

Question: And the “mean points count/cm^2, LAD zone (infarcted)” value ([5]; group II, dogs with MI, 30 min after occlusion, untreated 0,78 ± 0,07, p <0,01, listed as CLS (ca. dobesilate), 100 mg/kg)?
Answer: The value was 2,43 ± 0,06 points/cm^2.

Question: And the “mean points count/cm^2, LCC zone (non infarcted)” value ([5]; group II, dogs with MI, 30 min after occlusion, untreated 1,47 ± 0,07, listed as CLS 2210, 100 mg/kg)?
Answer: The value was 2,75±0,22 points/cm^2.

Question: And the “mean points count/cm^2, LCC zone (non infarcted)” value ([5]; group II, dogs with MI, 30 min after occlusion, untreated 1,47 ± 0,07, listed as CLS (ca. dobesilate), 100 mg/kg)?
Answer: Its value is 2,75 ± 0,22 points/cm^2.

Question: And the “ventricular surface occupied” value ([5]; group III, dogs with MI, 360 min, untreated 3,2%)?
Answer: Its value is 24,8%.

Question: And the “mean points count/cm^2, LAD zone (infarcted)” value ([5]; group III, dogs with MI, 360 min after occlusion, untreated 0,80 ± 0,08, p <0,001, listed as CLS 2210)?
Answer: The value was 6,15±0,18 points/cm^2.

Question: And the “mean points count/cm^2, LAD zone (infarcted)” value ([5]; group III, dogs with MI, 360 min after occlusion, untreated 0,80 ± 0,08, p <0,001, listed as CLS (ca. dobesilate))?
Answer: Its value is 6,15 ± 0,18 points/cm^2.

Question: And the “mean points count/cm^2, LCC zone (non infarcted)” value ([5]; group III, dogs with MI, 360 min after occlusion, untreated 2,57 ± 0,05, listed as CLS 2210, 100 mg/kg)?
Answer: The value was 2,45±0,13 points/cm^2.

Question: What about the “mean points count/cm^2, LCC zone (non infarcted)” value ([5]; group III, dogs with MI, 360 min after occlusion, untreated 2,57 ± 0,05, listed as CLS (ca. dobesilate), 100 mg/kg) of the same molecule?
Answer: The value was 2,45 ± 0,13 points/cm^2.

Question: What about the “precordial ST-segment elevation” value ([6]; EKG tracings, compared to controls) of the same molecule?
Answer: Its value is “rapid and much greater decrease”.

Question: What about the “consumption of conventional drugs (analgesic, nitroglycerin, diuretic, lidocain and digitalis)” value ([6]; compared to control group, i.v. then oral, added to conventional drugs) of the same molecule?
Answer: Its value is “considerably reduced”.

Question: What about the chest pain ([6]; compared to controls) of the same molecule?
Answer: The chest pain was “much less”.

Question: And the “serum levels of CPK” value [6, 7]?
Answer: Its value is “significant reduction”.

Question: And the “serum levels of LDH” value [6, 7]?
Answer: Its value is “significant reduction”.

Question: What about the “serum levels of SGOT” value [6, 7] of the same molecule?
Answer: Its value is “significant reduction”.

Question: And the short-term mortality ([6]; controls 15%)?
Answer: Its short-term mortality is 2%.

Question: And the “mobilisation of patients (average)” value ([6]; controls average 7 days)?
Answer: Its value is 4 days.

Question: What about the side-effects ([6]; human, in vivo) of the same molecule?
Answer: The side-effects was “no side-effects”.

Question: What about the tolerability ([6]; human, in vivo) of the same molecule?
Answer: Its tolerability is “well tolerated”.
